We go through twelve molecules from PMC9784403 (Pharmaceuticals, 2022).

Broadly, the Ki is a dissociation constant, usually derived from enzyme kinetics or from competition with a known ligand. High values mean lower affinity, low ones higher affinity. As usually defined, the Kd is a measure of binding affinity in units of concentration.

Test [1] addresses T1, σ2R/TMEM97 (Rattus norvegicus, UniProt Q5U3Y7).
T1 sequence (Q5U3Y7 1-176): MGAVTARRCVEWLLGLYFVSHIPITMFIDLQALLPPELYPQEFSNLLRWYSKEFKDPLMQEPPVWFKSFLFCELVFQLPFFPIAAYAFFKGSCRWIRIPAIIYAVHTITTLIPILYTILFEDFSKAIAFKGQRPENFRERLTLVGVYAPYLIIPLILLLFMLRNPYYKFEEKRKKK
Put plainly: Competitive receptor binding assay with [125I]RHM-4.
Description: Briefly, the livers of female SD rats (Rockland, ME, USA) were dissected and homogenized using a Wheaton overhead stirrer (120 Vac Overhead Stirrer, Millville, NJ, USA) in 10 mL/g tissue weight of ice-cold 10mM Tris-HCl/0.32M Sucrose, pH 7.4. The crude homogenate was centrifuged for 10 min at 1000× g at 4 °C, the pellets were discarded, and the supernatant was further centrifuged at 31,000× g for 20 min at 4 °C. The supernatant was discarded, and the pellet was resuspended in 3 mL/g of ice-cold 10 mM Tris-HCl/0.32M sucrose, pH 7.4, and centrifuged again at 31,000× g for 20 min at 4 °C. After centrifugation, the pellets were resuspended in 1 mL of 50mM Tris-HCl, pH 7.4, and stored at −80 °C.
The inhibition constant [14] values of the tested ligands were determined using the Cheng and Prussoff equation [35], and the mean Ki values ± SEM were reported for at least three independent experiments.

In test [2] the target is T1, σ2R/TMEM97. Put plainly: Competitive receptor binding assay with [3H]DTG (σ1R masked with (+)-pentazocine).
Description: After incubation, the bound ligands were filtered using an M-24 Brandel filtration system (Brandel, Gaithersburg, MD, USA), collected on glass fiber paper (Whatman grade 934-AH, GE Healthcare Bio-Sciences, Pittsburgh, PA, USA), and counted using a MicroBeta2 Microplate counter 2450 (Perkin Elmer, Boston, MA, USA) or Wizard2 Automatic Gamma Counter 2470 (Perkin Elmer, Boston, MA, USA). The inhibition constant [14] values of the tested ligands were determined using the Cheng and Prussoff equation [35], and the mean Ki values ± SEM were reported for at least three independent experiments.
Test [3] deals with TMEM97-knocked out HeLa cells. On the set-up: method as in PMID 30443021. Particulars: cited from earlier work.
For test [4], the target named is T1, σ2R/TMEM97. It counts as binding. On the set-up: from tissue; host or cells: liver membranes of Sprague-Dawley rats. The method, then: All Kd and Bmax values were calculated via a nonlinear regression method using Prism, and the protein concentrations were determined using Lowry et al.’s method with BSA as the standard.
Test [5] addresses T2, σ1R (Cavia porcellus, UniProt Q60492).
T2 construct: 100 μg of the brain membrane from male Guinea pigs; from tissue; host or cells: brain membranes of male guinea pigs
Put plainly: σ1R competitive binding assay with [3H](+)-pentazocine. The conditions noted are these: [3H](+)-pentazocine 5 nM; Guinea pig brain membrane; 90 min at 37 °C. The source says: For the σ1R assay, [^3H]Pentazocine (Perkin Elmer, Boston, MA, USA) was used as the radioligand to define the σ1R binding affinity of the test compounds, and the protocol followed the references published before with minor modification. […] Afterward, the filter paper collection, signal counting procedure, and data analysis were in line with the study of [^3H]DTG mentioned above.

“And” between values parts separate entries of the source, which are not always exact repeats. Identical values can stand only once. Where only a bound is given, the exact number is not on record here.

T2 sequence (Q60492 whole entry): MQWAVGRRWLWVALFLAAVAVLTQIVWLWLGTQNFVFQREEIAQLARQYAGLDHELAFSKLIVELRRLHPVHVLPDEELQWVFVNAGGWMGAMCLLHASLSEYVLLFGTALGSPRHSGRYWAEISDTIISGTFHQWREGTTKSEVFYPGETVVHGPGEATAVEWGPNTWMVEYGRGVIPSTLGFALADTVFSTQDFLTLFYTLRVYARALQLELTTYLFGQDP

On to `Cc1ccc2c(c1)C1CN(C)CCC1N2C(=O)CSc1nnnn1-c1ccc(Cl)cc1` (centres unmarked) [AG-205, reference compound], for which the Ki in test [1] turned out to be 571 ± 82.1 nM; in test [2] it was 807 ± 238 nM.

With `COc1cc2c(cc1OC)CN(CCc1ccc(NC(=O)c3cccc4c(=O)c5cccc(OC)c5[nH]c34)cc1)CC2` [Elacridar, reference compound], the Ki was 0.9 ± 0.3 nM in test [1] and 11.7 ± 0.7 nM in test [2].

In turn, `COc1cccc2c1CCCC2CCCN1CCN(C2CCCCC2)CC1` (centres unmarked) [PB-28, reference compound] yielded a Ki in test [1] of 0.1 nM.

In the case of `COc1cc2c(cc1OC)CN(CCCCNC(=O)c1cc(I)cc(OC)c1OC)CC2` [RHM-4], the Ki in test [1] came out at 0.2 ± 0.1 nM; in test [2], 11.7 ± 2.4 nM. The “fold increase of σ2R/TMEM97 affinity by combination of fragments 1 and 2” value in test [1] (RHM-4 versus fragments 1 and 2) is listed as “approximately 10 fold”.

Regarding `C=CCN(C)CCCCCCOc1ccc(C(=O)c2ccc(Br)cc2)c(F)c1` [Ro 48-8071, reference compound], the values for the Ki in test [1] and in test [2] were 73 ± 32.7 nM and 370 ± 230 nM, respectively.

Take `COc1ccc(C)cc1NC(=O)OC1CC2CCCC(C1)N2CCCCCCN` (centres unmarked) [SV119, reference compound]: the Ki in test [1] stood at 35 ± 4 nM; in test [2], 44.3 ± 7.3 nM.

Regarding `Cc1ccccc1NC(=N)Nc1ccccc1C` [[^3H]DTG, reference compound], in test [3] (read-out: Kd of retained low-affinity binding site), the Kd is approximately 300 nM.

As to `COc1cc2c(cc1OC)CN(CCCCNC(=O)c1cc([125I])cc(OC)c1OC)CC2` [[^125I]RHM-4], the “specific binding after knocking out TMEM97” value in test [3] is “completely eliminated”. This molecule also came in with a Kd in test [4] (SD rat liver membranes, saturation binding, 100 nM (+)-pentazocine added for [3H]DTG, n = 3) of 0.2 nM. In test [4] (SD rat liver membranes, saturation binding, n = 3), the “Bmax (binding capacity)” value was 3894 ± 50 fmol/mg and 3894 ± 90 fmol/mg. Further, the “fold higher σ2R/TMEM97 affinity than that of [3H]DTG” value in test [4] (ratio of binding affinities of the two radioligands) is ~ 50 fold.

For `CCCCNC(=O)c1cc(C)ccc1OCCF` [compound 1], the inhibitory constant (Ki) is 1310 ± 87 nM in test [5], more than 10000 nM in test [1] and more than 10000 nM in test [2].

`CCCCN1CCc2cc(OC)c(OC)cc2C1` [compound 2]: the Ki in test [5] stood at 38 ± 3.3 nM; in test [1], 7 ± 3.9 nM; in test [2], 10.4 ± 3.4 nM.

Turning to `COc1cc2c(cc1OC)CN(CCCCc1cc(-c3cc(C)ccc3OCCF)no1)CC2` [compound 3], the Ki in test [5] was 715 ± 46 nM; in test [1], 0.24 ± 0.02 nM; in test [2], 2.3 ± 0.4 nM.

Turning to `COc1cc2c(cc1OC)CN(CCCCc1cc(-c3ccc(F)cc3)no1)CC2` [compound 4], the inhibitory constant (Ki) in test [5] was 800 ± 23 nM; in test [1], 0.05 ± 0.01 nM; in test [2] it was 0.6 ± 0.3 nM.
